According to ChEMBL document CHEMBL1201862, “PubChem BioAssay data set” (2004):
Activity calls are given as the source filed them.

What was measured:
[1] = target: Lysosomal acid glucosylceramidase (Homo sapiens, UniProt P04062); experiment: Dose response cell-based high throughput screening assay to identify enhancers of beta-glucosidase activity. [Related pubchem assays: 784 ]; type: functional
[2] = target: Procathepsin L (Homo sapiens, UniProt P07711)
[3] = target: T1, Aspartyl aminopeptidase (Plasmodium falciparum 3D7, UniProt Q8I2J3)
T1 sequence (Q8I2J3 whole entry): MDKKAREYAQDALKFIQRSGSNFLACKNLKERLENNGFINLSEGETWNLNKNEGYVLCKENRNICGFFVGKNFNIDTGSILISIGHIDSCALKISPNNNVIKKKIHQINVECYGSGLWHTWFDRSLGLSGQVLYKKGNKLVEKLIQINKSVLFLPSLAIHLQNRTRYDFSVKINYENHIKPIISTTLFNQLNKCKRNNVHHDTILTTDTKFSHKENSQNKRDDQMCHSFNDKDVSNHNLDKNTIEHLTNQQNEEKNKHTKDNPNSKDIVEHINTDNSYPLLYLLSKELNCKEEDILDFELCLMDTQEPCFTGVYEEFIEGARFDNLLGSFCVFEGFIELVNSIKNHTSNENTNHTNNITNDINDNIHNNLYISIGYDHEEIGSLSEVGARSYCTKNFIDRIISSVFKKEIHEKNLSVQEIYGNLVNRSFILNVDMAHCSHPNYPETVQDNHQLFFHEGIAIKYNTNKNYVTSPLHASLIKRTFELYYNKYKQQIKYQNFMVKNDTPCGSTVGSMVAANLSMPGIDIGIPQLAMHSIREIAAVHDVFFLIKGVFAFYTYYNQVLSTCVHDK

[4] = target: Cytochrome P450 2D6 (Homo sapiens, UniProt P10635); experiment: qHTS Assay for Inhibitors and Substrates of Cytochrome P450 2D6. [Related pubchem assays: 410 ]; type: ADME; settings: read-out: Potency
[5] = target: T2, SUMO-activating enzyme (Homo sapiens, UniProt Q9UBT2); experiment: blockers of SAE1/SAE2–UBC9 SUMO transfer – biochemical, HTRF, uHTS, primary screen (AID 2006); type: protein-complex assay
[6] = microbe, parasite or virus in culture; type: functional; settings: Mycobacterium tuberculosis
[7] = target: T2, SUMO-activating enzyme; experiment: blockers of UBC9-mediated SUMO conjugation – biochemical, AlphaScreen, SUMOylation inhibitor project, confirmation (AID 2018); type: functional
[8] = target: E3 ubiquitin-protein ligase Mdm2 (Homo sapiens, UniProt Q00987); experiment: MDM2-luc reporter signal enhancers, multi-concentration potency testing, MDM2 ubiquitin-protein ligase inhibitor program, whole-cell format, luminescence detection, 384-well microplate (AID 1394); type: functional;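 also: MDM2 E3 inhibitors raise luminescence so EC50 is for signal enhancement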
[9] = viability of uninfected HEp-2 cells – cell-based, HTS, cytotoxicity control for RSV inhibitor project, dose response (AID 2410); type: functional; settings: human respiratory syncytial virus
[10] = target: T3, Hexokinase HKDC1 (Homo sapiens, UniProt Q2TB90); experiment: inhibition of HKDC1 glucose phosphorylation – biochemical, W721R variant, dose response (AID 504729); type: functional
T3 sequence (Q2TB90 whole entry): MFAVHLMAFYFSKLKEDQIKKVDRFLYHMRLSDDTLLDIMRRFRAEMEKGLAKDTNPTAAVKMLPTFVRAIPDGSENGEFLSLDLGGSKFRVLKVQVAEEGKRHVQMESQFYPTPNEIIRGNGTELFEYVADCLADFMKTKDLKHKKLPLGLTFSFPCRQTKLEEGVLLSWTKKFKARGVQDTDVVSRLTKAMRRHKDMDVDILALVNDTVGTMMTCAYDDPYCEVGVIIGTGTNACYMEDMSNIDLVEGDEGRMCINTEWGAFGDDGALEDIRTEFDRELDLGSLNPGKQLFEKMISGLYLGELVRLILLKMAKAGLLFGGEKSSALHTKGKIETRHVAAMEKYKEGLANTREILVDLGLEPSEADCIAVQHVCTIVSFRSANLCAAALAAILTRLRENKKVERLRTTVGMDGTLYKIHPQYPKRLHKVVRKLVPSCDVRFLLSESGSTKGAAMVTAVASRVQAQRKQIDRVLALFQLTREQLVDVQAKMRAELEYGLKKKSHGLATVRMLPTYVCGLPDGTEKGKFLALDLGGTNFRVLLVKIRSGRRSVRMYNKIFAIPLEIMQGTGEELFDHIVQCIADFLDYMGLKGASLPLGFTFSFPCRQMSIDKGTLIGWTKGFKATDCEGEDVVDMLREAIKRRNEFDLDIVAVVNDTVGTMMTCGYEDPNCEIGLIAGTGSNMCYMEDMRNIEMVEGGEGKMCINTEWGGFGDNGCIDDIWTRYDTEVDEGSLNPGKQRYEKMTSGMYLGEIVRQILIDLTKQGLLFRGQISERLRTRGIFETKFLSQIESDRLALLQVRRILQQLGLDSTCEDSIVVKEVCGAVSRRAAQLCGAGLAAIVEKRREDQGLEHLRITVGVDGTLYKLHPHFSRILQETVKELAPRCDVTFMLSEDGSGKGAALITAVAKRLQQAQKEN

T2 sequence (Q9UBE0 whole entry): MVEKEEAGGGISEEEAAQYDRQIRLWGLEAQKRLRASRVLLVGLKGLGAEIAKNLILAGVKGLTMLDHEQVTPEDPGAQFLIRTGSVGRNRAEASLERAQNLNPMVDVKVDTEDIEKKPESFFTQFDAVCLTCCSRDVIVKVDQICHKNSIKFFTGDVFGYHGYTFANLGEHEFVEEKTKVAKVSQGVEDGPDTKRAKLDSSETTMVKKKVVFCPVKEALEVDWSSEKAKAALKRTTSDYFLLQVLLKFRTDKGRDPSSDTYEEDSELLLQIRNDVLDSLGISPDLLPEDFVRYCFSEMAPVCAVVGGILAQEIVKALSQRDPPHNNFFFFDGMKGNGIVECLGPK
T2 sequence (Q9UBT2 whole entry): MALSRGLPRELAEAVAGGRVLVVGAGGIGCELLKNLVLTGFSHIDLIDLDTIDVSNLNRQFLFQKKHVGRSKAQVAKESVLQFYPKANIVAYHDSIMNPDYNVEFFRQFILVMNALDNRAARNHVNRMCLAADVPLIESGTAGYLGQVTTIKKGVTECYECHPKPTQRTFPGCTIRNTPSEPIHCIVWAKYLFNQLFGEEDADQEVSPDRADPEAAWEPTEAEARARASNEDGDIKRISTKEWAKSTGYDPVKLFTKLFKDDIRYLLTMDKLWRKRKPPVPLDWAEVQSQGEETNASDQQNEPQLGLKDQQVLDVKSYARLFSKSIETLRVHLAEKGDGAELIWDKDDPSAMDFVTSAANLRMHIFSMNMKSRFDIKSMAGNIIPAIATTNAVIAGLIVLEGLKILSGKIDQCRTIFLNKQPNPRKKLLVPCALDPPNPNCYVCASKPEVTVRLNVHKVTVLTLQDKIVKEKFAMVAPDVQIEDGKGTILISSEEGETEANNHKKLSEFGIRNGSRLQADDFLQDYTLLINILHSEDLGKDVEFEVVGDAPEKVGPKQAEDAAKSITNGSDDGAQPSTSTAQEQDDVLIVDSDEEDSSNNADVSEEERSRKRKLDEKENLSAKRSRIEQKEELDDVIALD
Chain of Lysosomal acid glucosylceramidase (P04062 whole entry): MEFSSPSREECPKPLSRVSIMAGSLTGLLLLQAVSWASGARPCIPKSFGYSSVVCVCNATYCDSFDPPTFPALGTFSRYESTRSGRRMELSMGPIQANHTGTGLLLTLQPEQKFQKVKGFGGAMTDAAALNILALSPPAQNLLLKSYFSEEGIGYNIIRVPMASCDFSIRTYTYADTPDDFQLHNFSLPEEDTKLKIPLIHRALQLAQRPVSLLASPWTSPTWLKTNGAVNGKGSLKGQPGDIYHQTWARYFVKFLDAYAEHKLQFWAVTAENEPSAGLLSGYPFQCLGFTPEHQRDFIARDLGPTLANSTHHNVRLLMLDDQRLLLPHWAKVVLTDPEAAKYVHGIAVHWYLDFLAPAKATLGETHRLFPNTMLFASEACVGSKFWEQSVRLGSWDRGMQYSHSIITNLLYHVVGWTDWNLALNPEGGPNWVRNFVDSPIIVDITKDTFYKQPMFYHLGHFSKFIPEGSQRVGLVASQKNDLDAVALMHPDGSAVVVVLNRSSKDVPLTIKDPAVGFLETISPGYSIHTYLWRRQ
Chain of E3 ubiquitin-protein ligase Mdm2 (Q00987 whole entry): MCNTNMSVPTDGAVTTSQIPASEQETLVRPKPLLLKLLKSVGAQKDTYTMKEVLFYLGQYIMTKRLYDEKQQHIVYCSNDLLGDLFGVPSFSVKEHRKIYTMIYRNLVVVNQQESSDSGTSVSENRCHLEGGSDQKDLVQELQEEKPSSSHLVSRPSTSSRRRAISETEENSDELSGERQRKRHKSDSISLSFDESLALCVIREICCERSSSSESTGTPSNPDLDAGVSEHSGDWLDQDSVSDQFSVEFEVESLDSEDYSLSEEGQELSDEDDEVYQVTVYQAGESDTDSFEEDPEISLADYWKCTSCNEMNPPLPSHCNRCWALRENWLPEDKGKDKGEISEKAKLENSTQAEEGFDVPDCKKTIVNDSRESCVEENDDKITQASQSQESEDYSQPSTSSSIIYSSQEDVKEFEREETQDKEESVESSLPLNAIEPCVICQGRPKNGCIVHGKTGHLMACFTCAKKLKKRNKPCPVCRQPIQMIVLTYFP
Chain of Cytochrome P450 2D6 (P10635 whole entry): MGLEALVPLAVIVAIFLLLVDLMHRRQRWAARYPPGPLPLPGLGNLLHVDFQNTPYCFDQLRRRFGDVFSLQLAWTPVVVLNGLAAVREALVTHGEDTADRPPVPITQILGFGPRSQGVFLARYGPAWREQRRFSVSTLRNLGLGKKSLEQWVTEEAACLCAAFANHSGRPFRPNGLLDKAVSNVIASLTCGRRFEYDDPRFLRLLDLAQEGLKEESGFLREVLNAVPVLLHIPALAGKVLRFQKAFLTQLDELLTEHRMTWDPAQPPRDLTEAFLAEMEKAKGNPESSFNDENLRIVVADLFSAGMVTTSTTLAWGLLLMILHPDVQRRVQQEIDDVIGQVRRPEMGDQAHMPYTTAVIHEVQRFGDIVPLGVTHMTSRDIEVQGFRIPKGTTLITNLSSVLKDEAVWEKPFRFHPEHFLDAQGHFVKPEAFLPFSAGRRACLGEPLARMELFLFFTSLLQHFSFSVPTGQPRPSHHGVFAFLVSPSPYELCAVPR
Chain of Procathepsin L (P07711 whole entry): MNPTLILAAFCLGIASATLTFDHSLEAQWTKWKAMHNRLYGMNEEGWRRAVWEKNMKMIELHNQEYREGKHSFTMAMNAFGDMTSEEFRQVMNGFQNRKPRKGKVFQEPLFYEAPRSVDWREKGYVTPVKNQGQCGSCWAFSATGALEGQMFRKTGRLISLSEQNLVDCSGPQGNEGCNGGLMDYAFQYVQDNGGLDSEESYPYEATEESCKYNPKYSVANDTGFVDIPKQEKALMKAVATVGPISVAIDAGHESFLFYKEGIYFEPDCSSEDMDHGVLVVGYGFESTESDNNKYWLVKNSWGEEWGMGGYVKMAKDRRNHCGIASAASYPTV

Structure (SMILES): CCCCNC(=O)C1CCCN1C(=O)Nc1cccc(OC)c1 (stereo not given)
- EC50 [1]: > 50 µM (not active)

Structure (SMILES): CN1C(=O)N(c2cccc3ccccc23)C(n2cncn2)C1(C)C (stereo not given)
- IC50 [2]: > 59.6 µM (not active)
- IC50 [3]: 1.8 µM (active)

Structure (SMILES): C=C(C)C(O)C(CC/C=C(\C)C(=O)OCC)OC (stereo not given)
- AC50 [4]: 3.16 µM (inconclusive)

Structure (SMILES): COc1cc(NC(=O)c2cnc(N)s2)cc(C(=O)Nc2cccc(C(F)(F)F)c2)c1
- IC50 [5]: 34.5 µM (active)
- CC50 [6]: > 40 µM (active)
- IC50 [7]: 10.8 µM (active)
- EC50 [8]: 22.9 µM (not active)
- CC50 [9]: 23.6 µM (active)
- IC50 [10]: 10.5 µM (active)
